These results are taken from ChEMBL document CHEMBL5390260 (J Med Chem, 2023).

Series [1] concerns MDCK. Briefly: Cytotoxicity against MDCK cells assessed as reduction in cell viability at 1 to 100 nM incubated for 72 hrs by WST-1 assay. The series is classed as toxicity, cell-based, Canis lupus familiaris. The following applies: dog, 0.1 µM, dose 1-100 nM.
The test system of series [2] is HT-29. The series is described as follows: Cytotoxicity against doxorubicin-sensitive human HT-29 cell assessed as reduction in cell viability at 1 to 100 nM incubated for 72 hrs by WST-1 assay. The class given is functional. To be noted: dose 1-100 nM.
The test system of series [3] is HT-29. Briefly: Cytotoxicity against doxorubicin-resistant human HT-29 cell assessed as reduction in cell viability at 1 to 100 nM incubated for 72 hrs by WST-1 assay. The class given is functional. To be noted: dose 1-100 nM.
Series [4] is described as follows: Cytotoxicity against MDCK-P-gp cells assessed as reduction in cell viability at 1 to 100 nM incubated for 72 hrs by WST-1 assay. The series is classed as toxicity, cell-based, Canis lupus familiaris. To be noted: dog, 0.1 µM, dose 1-100 nM.
In the next series the target is Carbonic anhydrase 9 (Homo sapiens, UniProt Q16790).
The target of another series is Carbonic anhydrase 12 (Homo sapiens, UniProt O43570). The series is described as follows: Binding affinity to human recombinant CA12 assessed as inhibition constant incubated for 15 mins by phenol red dye based stopped flow CO2 hydration assay.
In series [5] the test system is HCT-116. The series is described as follows: Antiproliferative activity against human HCT-116 cells assessed as inhibition of cell growth measured after 48 to 72 hrs by MTT assay. The class given is functional, cell-based.
Series [6] concerns SW480. The series is described as follows: Antiproliferative activity against human SW480 cells assessed as inhibition of cell growth measured after 48 to 72 hrs by XTT assay. The series is classed as functional, cell-based.
In series [7] the test system is SW-620. The series is described as follows: Antiproliferative activity against human SW620 cells assessed as inhibition of cell growth measured after 48 to 72 hrs by XTT assay. The class given is functional, cell-based.
Series [8] has as its system HCT-116. Briefly: Antiproliferative activity against human HCT-116 cells assessed as inhibition of cell growth measured after 48 to 72 hrs in presence of 5-fluorouracil by MTT assay. The class given is functional, cell-based.
Series [9] has as its system SW480. The series is described as follows: Antiproliferative activity against human SW480 cells assessed as inhibition of cell growth measured after 48 to 72 hrs in presence of 5-fluorouracil by XTT assay. The series is classed as functional, cell-based.
The subject of series [10] is SW-620. The series is described as follows: Antiproliferative activity against human SW620 cells assessed as inhibition of cell growth measured after 48 to 72 hrs in presence of 5-fluorouracil by XTT assay. The series is classed as functional, cell-based.
The subject of a further series is MCF7. Briefly: Antiproliferative activity against human MCF7 cells assessed as inhibition of cell growth measured after 48 hrs by sulforhodamine B assay. The class given is functional, cell-based. To be noted: MCF7, 48 h.
The test system of the next series is OVCAR-8. Briefly: Antiproliferative activity against human OVCAR-8 cells assessed as inhibition of cell growth measured after 48 hrs by sulforhodamine B assay. The series is classed as functional, cell-based. To be noted: OVCAR-8, 48 h.
Another series deals with NCI/ADR-RES. The series is described as follows: Antiproliferative activity against human NCI/ADR-RES cells assessed as inhibition of cell growth measured after 48 hrs by sulforhodamine B assay. The class given is functional, cell-based.
The subject of a further series is MDA-MB-231. The series is described as follows: Antiproliferative activity against human MDA-MB-231 cells assessed as inhibition of cell growth at 0.1 to 30 uM measured after 72 hrs by propidium iodide staining based cytofluorimetric analysis. The series is classed as functional. To be noted: dose 0.1-30 µM.
For another series, the system named is BT-549. The series is described as follows: Antiproliferative activity against human BT-549 cells assessed as inhibition of cell growth at 0.1 to 30 uM measured after 72 hrs by propidium iodide staining based cytofluorimetric analysis. The series is classed as functional. The following applies: dose 0.1-30 µM.
Series [11] deals with T-cell. Briefly: Induction of apoptosis in human T-lymphocyte assessed as late apoptotic cells at 30 uM measured after 72 hrs by Annexin-V/propidium iodide staining based flow cytometric analysis (reference value: 14%). The series is classed as toxicity.
In series [12] the test system is T-cell. Briefly: Induction of apoptosis in human T-lymphocyte assessed as increase in cell death at 30 uM measured after 72 hrs by Annexin-V/propidium iodide staining based flow cytometric analysis relative to control. The series is classed as toxicity.
The subject of series [13] is HCT-116. Briefly: Induction of apoptosis in human HCT-116 cells assessed as increase in cleaved PARP level upto 30 uM measured after 72 hrs by Western blotting analysis. The series is classed as functional, cell-based.
The subject of series [14] is HCT-116. Briefly: Induction of apoptosis in human HCT-116 cells assessed as increase in cleaved caspase-3 level upto 30 uM measured after 72 hrs by Western blotting analysis. The class given is functional, cell-based.
The test system of series [15] is HEK293T. Briefly: Inhibition of Wnt/beta-catenin signalling pathway in LiCl stimulated HEK293T cells transfected with renilla luciferase and TOPFlash reporter gene incubated for 24 hrs by luminescence based analysis. The following applies: Homo sapiens, dose <= 30.0 µM. The series is classed as cell-based.
In series [16] the test system is HEK293T. The series is described as follows: Inhibition of Wnt/beta-catenin signalling pathway in LiCl stimulated HEK293T cells transfected with renilla luciferase and FOPFlash reporter gene upto 30 uM incubated for 24 hrs by luminescence based analysis. The series is classed as cell-based. The following applies: Homo sapiens.
In series [17] the test system is HCT-116. Briefly: Inhibition of Wnt/beta-catenin signalling pathway in LiCl stimulated human HCT-116 cells assessed as reduction in beta-catenin level upto 30 uM incubated for 24 hrs by Western blotting analysis. The class given is cell-based.
Series [18] concerns HCT-116. Briefly: Inhibition of Wnt/beta-catenin signalling pathway in LiCl stimulated human HCT-116 cells assessed as reduction in c-MYC level upto 30 uM incubated for 24 hrs by Western blotting analysis. The class given is cell-based.
In series [19] the test system is HCT-116. The series is described as follows: Inhibition of Wnt/beta-catenin signalling pathway in LiCl stimulated human HCT-116 cells assessed as reduction in […] gene expression upto 30 uM incubated for 24 hrs by RT-PCR analysis. The class given is cell-based.
The subject of series [20] is HCT-116. The series is described as follows: Inhibition of Wnt/beta-catenin signalling pathway in LiCl stimulated human HCT-116 cells assessed as reduction in Sal4 gene expression upto 30 uM incubated for 24 hrs by RT-PCR analysis. The class given is cell-based.
Series [21] has as its target T1, ATP-dependent translocase ABCB1 (Homo sapiens, UniProt P08183). Briefly: Inhibition of P-gp in doxorubicin-resistant human HT-29 cell assessed as increase in intracellular doxorubicin accumulation incubated for 72 hrs in presence of doxorubicin by spectrofluorimetric analysis. The class given is cell-based. The following applies: 0.1 µM, dose 100 nM.
In series [22] the target is T1, ATP-dependent translocase ABCB1. Briefly: Inhibition of P-gp in human HT-29 cells assessed as effect on intracellular doxorubicin accumulation at 1 to 100 nM incubated for 72 hrs in presence of doxorubicin by spectrofluorimetric analysis. The series is classed as cell-based. The following applies: dose 1-100 nM.
For series [23], the system named is MDCK-P-gp. Briefly: Inhibition of P-gp in MDCK-P-gp cells assessed as effect on intracellular doxorubicin accumulation at 1 to 100 nM incubated for 72 hrs in presence of doxorubicin by […] assay. The series is classed as cell-based. The following applies: Canis lupus familiaris, dose 1-100 nM.
The target of series [24] is T1, ATP-dependent translocase ABCB1. Briefly: Inhibition of P-gp ATPase activity in doxorubicin-resistant human HT-29 cell assessed as reduction in rate of ATP hydrolysis at 10 nM incubated for 3 hrs by spectrophotometric analysis. To be noted: 0.01 µM. The series is classed as cell-based.
Series [25] concerns MDCK-P-gp. The series is described as follows: Inhibition of P-gp ATPase activity in MDCK-P-gp cells assessed as reduction in rate of ATP hydrolysis at 10 nM incubated for 3 hrs by spectrophotometric analysis. To be noted: Canis lupus familiaris. The class given is cell-based.
In series [26] the test system is HT-29. Briefly: Cytotoxicity against doxorubicin-sensitive human HT-29 cell assessed as reduction in cell viability at 1 to 100 nM incubated for 72 hrs in presence of doxorubicin by WST-1 assay. The class given is functional, cell-based. The following applies: dose 1-100 nM.
Series [27] deals with HT-29. Briefly: Cytotoxicity against doxorubicin-resistant human HT-29 cell assessed as reduction in cell viability incubated for 72 hrs in presence of doxorubicin by WST-1 assay. The series is classed as functional, cell-based. To be noted: dose 1-100 nM.
For series [28], the system named is MDCK. Briefly: Cytotoxicity against MDCK cells assessed as reduction in cell viability at 1 to 100 nM incubated for 72 hrs in presence of doxorubicin by WST-1 assay. The following applies: dog, 0.1 µM, dose 1-100 nM. The series is classed as toxicity, cell-based, Canis lupus familiaris.
Series [29] in a line: Cytotoxicity against MDCK-P-gp cells assessed as reduction in cell viability incubated for 72 hrs in presence of doxorubicin by WST-1 assay. The class given is toxicity, cell-based, Canis lupus familiaris. The following applies: dog, dose 1-100 nM.
Series [30] concerns HT-29. The series is described as follows: Cytotoxicity against doxorubicin-resistant human HT-29 cell assessed as reduction in cell viability […] incubated for 72 hrs in presence of doxorubicin by WST-1 assay. The class given is functional, cell-based.
Another series concerns the target Carbonic anhydrase 2 (Homo sapiens, UniProt P00918). The series is described as follows: Binding affinity to human recombinant CA2 assessed as inhibition constant incubated for 15 mins by phenol red dye based stopped flow CO2 hydration assay.
The target of another series is Tubulin (Homo sapiens) (UniProt P68371+Q9H4B7+P0DPH7+P68366+Q13509+Q71U36+P04350+Q3ZCM7+P07437+P68363+Q9BQE3+Q6PEY2+Q13885+Q9BVA1+Q9BUF5). Briefly: Inhibition of tubulin polymerization (unknown origin) at 20 uM preincubated for 15 mins followed by GTP addition by spectrophotometric analysis. The series is classed as protein-complex assay.

The source made the active and inactive calls. No cut-off for these calls is given here.

Sequence of Carbonic anhydrase 12 (O43570 whole entry): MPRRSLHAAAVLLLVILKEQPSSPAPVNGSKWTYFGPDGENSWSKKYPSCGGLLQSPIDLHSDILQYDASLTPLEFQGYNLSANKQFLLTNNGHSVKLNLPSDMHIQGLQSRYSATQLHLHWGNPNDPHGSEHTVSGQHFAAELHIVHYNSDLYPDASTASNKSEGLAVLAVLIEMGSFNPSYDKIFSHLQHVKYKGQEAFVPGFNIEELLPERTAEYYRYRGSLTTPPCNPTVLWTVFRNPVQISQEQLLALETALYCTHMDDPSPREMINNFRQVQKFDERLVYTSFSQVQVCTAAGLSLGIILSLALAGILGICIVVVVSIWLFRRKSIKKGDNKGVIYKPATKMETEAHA
T1 sequence (P08183 whole entry): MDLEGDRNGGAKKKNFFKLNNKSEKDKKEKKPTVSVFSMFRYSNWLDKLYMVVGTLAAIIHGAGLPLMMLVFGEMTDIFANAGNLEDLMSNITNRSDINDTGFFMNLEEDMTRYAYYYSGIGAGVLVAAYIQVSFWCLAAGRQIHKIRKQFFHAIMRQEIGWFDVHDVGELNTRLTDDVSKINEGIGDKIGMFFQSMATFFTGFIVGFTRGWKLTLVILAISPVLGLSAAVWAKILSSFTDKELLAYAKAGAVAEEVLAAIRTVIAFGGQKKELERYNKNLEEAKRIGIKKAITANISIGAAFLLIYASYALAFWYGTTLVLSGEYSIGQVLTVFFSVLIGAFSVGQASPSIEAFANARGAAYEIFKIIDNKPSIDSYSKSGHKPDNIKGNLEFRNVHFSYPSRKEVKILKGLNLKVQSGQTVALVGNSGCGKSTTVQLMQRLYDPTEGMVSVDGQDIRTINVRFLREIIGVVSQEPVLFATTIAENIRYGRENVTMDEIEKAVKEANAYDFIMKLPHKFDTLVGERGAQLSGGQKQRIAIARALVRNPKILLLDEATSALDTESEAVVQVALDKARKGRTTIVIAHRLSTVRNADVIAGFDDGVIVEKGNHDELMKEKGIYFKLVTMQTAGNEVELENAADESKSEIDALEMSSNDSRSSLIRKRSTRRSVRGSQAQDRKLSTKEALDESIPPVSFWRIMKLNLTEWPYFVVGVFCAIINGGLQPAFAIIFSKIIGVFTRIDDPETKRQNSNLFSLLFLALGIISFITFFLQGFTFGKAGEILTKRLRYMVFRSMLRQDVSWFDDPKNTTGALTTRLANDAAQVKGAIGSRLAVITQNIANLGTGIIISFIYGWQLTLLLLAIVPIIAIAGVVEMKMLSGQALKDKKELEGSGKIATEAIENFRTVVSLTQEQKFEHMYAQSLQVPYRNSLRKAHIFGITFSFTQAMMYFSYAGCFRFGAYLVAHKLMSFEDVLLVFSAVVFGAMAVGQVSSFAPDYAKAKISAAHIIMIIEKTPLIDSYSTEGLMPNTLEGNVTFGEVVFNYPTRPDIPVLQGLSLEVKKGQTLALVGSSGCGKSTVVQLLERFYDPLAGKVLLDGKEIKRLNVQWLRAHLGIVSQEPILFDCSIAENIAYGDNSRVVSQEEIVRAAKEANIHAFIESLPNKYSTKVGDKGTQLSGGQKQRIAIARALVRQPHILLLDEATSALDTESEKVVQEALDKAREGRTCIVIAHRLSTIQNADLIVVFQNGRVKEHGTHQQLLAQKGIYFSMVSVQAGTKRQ

For the compound `COc1cccc2c1C(=O)c1c(O)c3c(c(O)c1C2=O)C[C@@](O)(C(=O)CO)C[C@@H]3O[C@H]1C[C@H](N)[C@H](O)[C@H](C)O1` [DOXORUBICIN], the Activity result in the series with MDCK [1] is recorded as “Toxic”; in series [4], “Non-Toxic”. Besides, in the series with HT-29 [2], the outcome was Active. Further, the result in the series on HT-29 [3] was inactive.

On to `NS(=O)(=O)c1ccc(-n2cc(C(=O)c3ccccc3)c(-c3ccccc3)c2)cc1`, for which the Ki on Carbonic anhydrase 9 stood at 38.6 nM; at Carbonic anhydrase 12, 59.4 nM.

Take `COc1cc(C(=O)c2cn(-c3ccc(S(N)(=O)=O)cc3)cc2-c2ccccc2)cc(OC)c1OC`: the Activity in the series with MDCK [1] is more than 75%; in the series on T-cell [11] it was 20%; with T-cell [12], 6%; in the series on HT-29 [2], more than 75%; with HT-29 [3], more than 75%; in [4], more than 75%. In addition, the Activity result in the series on HT-29 [27] was “Dose-Dependent Effect”; in the series with MDCK [28], “Non-Toxic”; in [29], “Dose-Dependent Effect”. For the same compound, the IC50 was 8700 nM in the series on HCT-116 [5]; 17700 nM with SW480 [6]; 23800 nM with SW-620 [7]; 17000 nM in the series on HCT-116 [8]; 42900 nM in the series on SW480 [9]; 37300 nM with SW-620 [10]. Further, the IC50 with MCF7 came out at 1900 nM; with OVCAR-8, 1900 nM; in the series with NCI/ADR-RES, 2100 nM. Further, the outcome in the series on MDA-MB-231, with BT-549, in the series with HCT-116 [13], with HCT-116 [14], with HT-29 [26] and in the series with HT-29 [30] was Active. In the series on HEK293T [15], the inhibition entry was “Dose-Dependent Effect”. The inhibition entry with HEK293T [16] and in the series on MDCK-P-gp [23] was “inactive” throughout. Moreover, the inhibition entry with HCT-116 [17], in the series on HCT-116 [18], in the series with HCT-116 [19], in the series with HCT-116 [20] and with MDCK-P-gp [25] was “Active” each time. For the same compound, the “inhibition (INH)” value in [21] is “Dose-Dependent Effect”; in [22], “Not Active”; in series [24], “Active”.

Turning to `NS(=O)(=O)c1ccc(-n2ccc(C(=O)c3ccccc3)c2)cc1`, the Ki at Carbonic anhydrase 9 came to 66 nM; on Carbonic anhydrase 12 it was 47.1 nM.

`NS(=O)(=O)c1ccc(-n2cc(C(=O)c3ccccc3)c3ccccc32)cc1`: the Ki amounted to 31.6 nM at Carbonic anhydrase 9 and 52 nM at Carbonic anhydrase 12.

On to `COc1cc(C(=O)c2ccn(-c3ccc(S(N)(=O)=O)cc3)c2)cc(OC)c1OC`, for which the Ki is 10.2 nM on Carbonic anhydrase 2, 44.8 nM at Carbonic anhydrase 9 and 11.5 nM on Carbonic anhydrase 12. The inhibition entry on Tubulin (Homo sapiens) is “inactive”. In addition, the IC50 worked out at 3900 nM in the series on MCF7, 1900 nM in the series with OVCAR-8 and 2200 nM with NCI/ADR-RES.

On to `COc1cc(C(=O)c2cn(-c3ccc(S(N)(=O)=O)cc3)c3ccccc23)cc(OC)c1OC`, for which the IC50 in the series with HCT-116 [8] came out at 14000 nM; in the series with SW480 [9] it was 50300 nM; with SW-620 [10] it was 25800 nM.

Take `Nc1ccc(C(=O)c2ccc(-c3ccc(S(N)(=O)=O)cc3)cc2)cc1`: in the series with NCI/ADR-RES, the concentration for a half-maximal effect (EC50) was 2100 nM.
